Data reported in PubChem BioAssay AID330 (DTP/NCI, 2004).
Where “and” joins values, the source holds several entries; their conditions need not be identical. Equal values may be shown once. Toxic doses and inconclusive results are not listed.

Test system: P388 leukemia ip, CD2F1 mice, survival T/C
Test: NCI In Vivo Anticancer Drug Screen. Data for tumor model P388 Leukemia (intraperitoneal) in CD2F1 (CDF1) mice
Settings: endpoint: median survival time, higher = longer survival
How it was run: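 Mice carrying the transplanted tumor received test compound or vehicle. Survival was recorded in each group, and the value is the treated-group measurement divided by that of the vehicle-treated control group.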

[1] = dose: 50.0 mg/kg/injection, schedule: Q01DX005 (ip), vehicle: saline with Tween-80
[2] = dose: 100.0 mg/kg/injection, schedule: Q01DX005 (ip), vehicle: saline with Tween-80
[3] = dose: 200.0 mg/kg/injection, schedule: Q01DX005 (ip), vehicle: saline with Tween-80
[4] = dose: 50.0 mg/kg/injection, schedule: Q01DX009 (ip), vehicle: Klucel (hydroxypropylcellulose) (HPC)
[5] = dose: 100.0 mg/kg/injection, schedule: Q01DX009 (ip), vehicle: Klucel (hydroxypropylcellulose) (HPC)
[6] = dose: 200.0 mg/kg/injection, schedule: Q01DX009 (ip), vehicle: Klucel (hydroxypropylcellulose) (HPC)

Clc1ccc(-c2cc3cc4c(cc3[nH]2)Sc2ccccc2O4)cc1
T/C (dose: 100.0 mg/kg/injection, schedule: Q04DX003 (ip), vehicle: saline): 86 % of control
T/C (dose: 200.0 mg/kg/injection, schedule: Q04DX003 (ip), vehicle: saline): 86 % of control
T/C (dose: 400.0 mg/kg/injection, schedule: Q04DX003 (ip), vehicle: saline): 98 % of control

O=C1N[C@@H](Cc2ccccc2)C(=O)N2CSC[C@H]12
T/C (dose: 100.0 mg/kg/injection, schedule: Q01DX001 (ip), vehicle: Klucel (hydroxypropylcellulose) (HPC)): 99 % of control
T/C (dose: 200.0 mg/kg/injection, schedule: Q01DX001 (ip), vehicle: Klucel (hydroxypropylcellulose) (HPC)): 102 % of control
T/C (dose: 400.0 mg/kg/injection, schedule: Q01DX001 (ip), vehicle: Klucel (hydroxypropylcellulose) (HPC)): 102 % of control

CCC(/C=C/c1ccccc1)=N\Nc1ccccc1
T/C [1]: 104 % of control
T/C [2]: 105 % of control
T/C [3]: 104 % of control
T/C (dose: 400.0 mg/kg/injection, schedule: Q01DX005 (ip), vehicle: saline with Tween-80): 98 % of control

CN(C)c1ccccc1[Si](C)(C)N(C)C
T/C (dose: 60.0 mg/kg/injection, schedule: Q01DX005 (ip), vehicle: saline): 103 % of control
T/C (dose: 120.0 mg/kg/injection, schedule: Q01DX005 (ip), vehicle: saline): 103 % of control
T/C (dose: 240.0 mg/kg/injection, schedule: Q01DX005 (ip), vehicle: saline): 106 % of control

FC(F)(F)COP(OCC(F)(F)F)OCC(F)(F)F
T/C (dose: 100.0 mg/kg/injection, schedule: Q04DX003 (ip), vehicle: saline with Tween-80): 118 % of control
T/C (dose: 200.0 mg/kg/injection, schedule: Q04DX003 (ip), vehicle: saline with Tween-80): 102 % of control
T/C (dose: 400.0 mg/kg/injection, schedule: Q04DX003 (ip), vehicle: saline with Tween-80): 104 % of control

Cc1ccc(S(=O)(=O)OCC(OS(=O)(=O)c2ccc(C)cc2)C2OC3OC(C)(C)OC3C2O)cc1 (stereo unspecified)
T/C [1]: 103 % of control
T/C [2]: 97 % of control
T/C [3]: 96 % of control

O=C1CC2(CCCC2)C(=O)N1c1ccc(N2C(=O)CC3(CCCC3)C2=O)cc1
T/C [4]: 96 % of control
T/C [5]: 99 % of control
T/C [6]: 96 % of control

CC1(C)N=C(N)N=C(N)N1c1ccc(CCC(=O)Nc2ccc(S(=O)(=O)F)cc2)cc1
T/C (dose: 4.4 mg/kg/injection, schedule: Q01DX009 (ip), vehicle: saline with Tween-80): 155 % of control
T/C (dose: 6.6 mg/kg/injection, schedule: Q01DX009 (ip), vehicle: saline with Tween-80): 150 % of control
T/C (dose: 10.0 mg/kg/injection, schedule: Q01DX009 (ip), vehicle: saline with Tween-80): 160 % of control
T/C (dose: 12.5 mg/kg/injection, schedule: Q01DX009 (ip), vehicle: saline with Tween-80): 169 % of control
T/C (dose: 25.0 mg/kg/injection, schedule: Q01DX009 (ip), vehicle: saline with Tween-80): 180 % of control
T/C (dose: 44.0 mg/kg/injection, schedule: Q01DX009 (ip), vehicle: saline with Tween-80): 168 % of control
T/C (dose: 50.0 mg/kg/injection, schedule: Q01DX009 (ip), vehicle: saline with Tween-80): 177 % of control
T/C (dose: 50.0 mg/kg/injection, schedule: Q01DX009 (ip), vehicle: saline): 93 % of control
T/C (dose: 66.0 mg/kg/injection, schedule: Q01DX009 (ip), vehicle: saline with Tween-80): 177 % of control

Cc1nn(C(=O)c2ccncc2)c(C)c1N=Nc1cccc2ccccc12
T/C [4]: 96 % of control
T/C [5]: 99 % of control
T/C [6]: 96 % of control

CCN(Cc1ccc(Cl)c(Cl)c1)c1ccc2nc(N)nc(N)c2c1C
T/C (dose: 6.25 mg/kg/injection, schedule: Q01DX009 (ip), vehicle: Klucel (hydroxypropylcellulose) (HPC)): 121 % of control
T/C (dose: 12.5 mg/kg/injection, schedule: Q01DX009 (ip), vehicle: Klucel (hydroxypropylcellulose) (HPC)): 116 % of control
T/C (dose: 12.5 mg/kg/injection, schedule: Q04DX003 (ip), vehicle: water): 116 % of control and 91 % of control
T/C (dose: 25.0 mg/kg/injection, schedule: Q01DX009 (ip), vehicle: Klucel (hydroxypropylcellulose) (HPC)): 114 % of control
T/C (dose: 25.0 mg/kg/injection, schedule: Q04DX003 (ip), vehicle: water): 114 % of control and 122 % of control
T/C (dose: 50.0 mg/kg/injection, schedule: Q04DX003 (ip), vehicle: water): 155 % of control
T/C (dose: 100.0 mg/kg/injection, schedule: Q04DX003 (ip), vehicle: water): 117 % of control and 90 % of control
